Results taken from US10104889B2 (priority 2011, dated 2018).
Read-outs that look alike come from different tables or passages of the source.

Assays:
Assay type in all cases: in vivo
[1] = system: Candidatus ‘Liberibacter asiaticus’; settings: for effect on bacteria levels during the evaluation period: 1 μM spray every 15 days for 6 months, 10 HLB infected citrus plants, FIG. 5
[2] = system: Alternaria solani; assay: Control of disease in tomato plants inoculated with Alternaria solani; settings: 1 μM spray every 15 days for 3 months; for percentage of mortality due to disease: mortality at 3 months
Method: (§1) In order to evaluate the effect of the brassinosteroid analogue (25R)-3-hydroxy-C-homo-11-oxa-5-espirostan-12-one and a natural brassinosteroid (brassinolide), on the control of other plant diseases, experiments were conducted with tobacco and tomato plants inoculated with Phytophthora parasitica and Alternaria solani, respectively. Both the natural brassinosteroid as the analogue were applied by spraying at a concentration of 1 μM every 15 days for 3 months. The mortality rate was determined at 3 months. […] Hundred plants were used for each treatment. Untreated plants were used as controls.

[3] = system: Phytophthora parasitica; assay: Control of disease in tobacco plants inoculated with Phytophthora parasitica; settings: 1 μM spray every 15 days for 3 months; for percentage of mortality due to disease: mortality at 3 months
Method: as §1

[4] = system: genes related to defense against diseases of citrus plants; assay: Relative expression of defense-related genes in citrus plants by real-time quantitative PCR; settings: Citrus sinensis, 20 μM spray
Method: Citrus plants (Citrus sinensis) were treated with the brassinosteroid analogue (25R)-3-hydroxy-C-homo-11-oxa-5-espirostan-12-one at 20 μM (Iglesias et al. (1998) Synthetic Communications 28: 75-81). Leaves from five plants were collected at 0, 1, 5, 10, 24 and 48 hours after spray application. Total RNA was extracted from leaves using the RNeasy kit (Qiagen, Valencia, Calif.) according to manufacturer's instructions, which includes a DNase treatment. The cDNAs were synthesized by using oligo-dT primer and reverse transcription kit SuperScript III (Invitrogen, Carlsbad, Calif.) according to manufacturer's instructions. The real-time quantitative PCR was performed using a RotorGene 3000 PCR machine (Corbett, Australia) and QuantiTect SYBR Green PCR kit (Qiagen). The reaction conditions in real-time PCR were: an initial denaturation step at 95° C. for 15 min. followed by denaturation at 95° C. for 15 s, an alignment step for 30 s at 60° C. and an extension step for 30 s at 72° C. for 40 cycles. The analysis was carried out using the RotorGene 3000 software (Corbett, Australia) and five replicates were used for each sample. Experiments were repeated twice.

[5] = system: genes related to the natural defense mechanism of plants against diseases; assay: Identification of new defense genes activated in treated citrus plants by SuperSAGE; settings: Citrus sinensis, 20 μM spray, leaves 1-48 hours, FIG. 2
Method: Citrus plants (Citrus sinensis) were treated with the brassinosteroid analogue (25R)-3-hydroxy-C-homo-11-oxa-5-espirostan-12-one at 20 μM. Leaves from five plants were collected at 1, 5, 10, 24 and 48 hours after spray application. Total RNA was extracted from leaves using the RNeasy kit (Qiagen, Valencia, Calif.) according to manufacturer's instructions. The cDNAs were synthesized by using biotinylated oligo-dT primer and reverse transcription kit SuperScript III (Invitrogen, Carlsbad, Calif.) according to manufacturer's instructions. Samples of five citrus plants treated with water and collected during the times listed above were used as control. The identification and characterization of new genes was performed by the construction of two cDNA libraries by the technique of SuperSAGE (Matsumura et al. (2003) PNAS 100: 15718-15723). The control library was the mixture of leaves of plants treated with water at different times and target sample was the mixture of citrus plant leaves treated with the analogue at different times. The new genes related to plant response to the HLB, activated by application of brassinosteroid analogue, were isolated, sequenced and analyzed.

[6] = system: Candidatus ‘Liberibacter asiaticus’; settings: adult plants, natural conditions, 20 mM spray every 15 days, one year, FIG. 3B
[7] = system: Candidatus ‘Liberibacter asiaticus’; settings: HLB infected Citrus sinensis treated for one year, FIG. 4A
[8] = system: Candidatus ‘Liberibacter asiaticus’; settings: 1 μM spray twice a month, area with HLB plants and Diaphorina citri, FIG. 7
[9] = greenhouse, Citrus sinensis with HLB, 20 μM spray every 15 days, 6 months, FIG. 3A

## CC(C)[C@H](C)[C@@H](O)[C@H](O)[C@@H](C)[C@H]1CC[C@H]2[C@@H]3COC(=O)[C@H]4C[C@H](O)[C@H](O)C[C@]4(C)[C@H]3CC[C@]12C [brassinolide, reference compound]
[1]
  effect on bacteria levels during the evaluation period: significant reduction in bacteria levels
[2]
  effect on incidence of disease: marked effect in reducing the incidence of diseases
  percentage of mortality due to disease: 12 percentage
[3]
  effect on incidence of disease: marked effect in reducing the incidence of diseases
  percentage of mortality due to disease: 13 percentage

## C[C@@H]1CC[C@@]2(OC1)O[C@H]1C[C@H]3[C@@H]4CC[C@H]5CC(O)CC[C@]5(C)[C@H]4OC(=O)C[C@]3(C)[C@H]1[C@@H]2C (stereo partly drawn) [brassinosteroid analogue, (25R)-3-hydroxy-C-homo-11-oxa-5-espirostan-12-one]
[4]; after application
  time of highest expression of the rest of the genes: 5 h
  time of highest level of expression of allene oxide synthase gene: 24 h
[4]; leaves 0-48 hours, FIG. 1
  activation of all analyzed genes (chitinase, β-1,3-glucanase, glutathione peroxidase, phenylalanine-ammonia lyase, superoxide dismutase, allene oxide synthase): activated
[5]
  activation of new genes identified by SuperSAGE: simultaneously activates genes related to hypersensitive response, salicylic acid and jasmonic acid/ethylene
[1]; 0.001 μM, spray every 15 days for 6 months
  Absolute concentration of the bacterium after 6 months of treatment: 522 Copies of the bacteria by reaction
[1]; 0.01 μM, spray every 15 days for 6 months
  Absolute concentration of the bacterium after 6 months of treatment: 29 Copies of the bacteria by reaction
[1]
  effect on bacteria levels during the evaluation period: significant reduction in bacteria levels
[1]; 1 μM, FIG. 6
  levels of bacteria, application two times a month and weekly compared with a single application per month: significantly reduced levels of bacteria, more early
[1]; 1 μM, spray every 15 days for 6 months
  Absolute concentration of the bacterium after 6 months of treatment: 1 Copies of the bacteria by reaction
[1]; 5 μM, spray every 15 days for 6 months
  Absolute concentration of the bacterium after 6 months of treatment: 0 Copies of the bacteria by reaction
[1]; 10 μM, spray every 15 days for 6 months
  Absolute concentration of the bacterium after 6 months of treatment: 0 Copies of the bacteria by reaction
[1]; 20 μM, spray every 15 days for 6 months
  Absolute concentration of the bacterium after 6 months of treatment: 0 Copies of the bacteria by reaction
[1]; 40 μM, spray every 15 days for 6 months
  Absolute concentration of the bacterium after 6 months of treatment: 0 Copies of the bacteria by reaction
[1]; 60 μM, spray every 15 days for 6 months
  Absolute concentration of the bacterium after 6 months of treatment: 0 Copies of the bacteria by reaction
[1]; concentrations of 0.01 and up to 60 μM, spray every 15 days for 6 months
  bacteria levels: drastically reduced
[1]; [9]
  significant reduction in levels of bacteria, from: second month
  undetectable levels of bacteria reached from month: 4 month
[6]
  significant reduction in bacteria levels, from: third months
  undetectable levels of bacteria reached from months: 8 months
[7]
  presence of bacteria in leaves by electron microscopy: presence of bacteria was not observed
[8]
  protection of citrus plants without HLB against infection: protect them against infection from bacteria
[2]
  effect on incidence of disease: marked effect in reducing the incidence of diseases
  percentage of mortality due to disease: 9 percentage
[3]
  effect on incidence of disease: marked effect in reducing the incidence of diseases
  percentage of mortality due to disease: 11 percentage
